Like-named read-outs stand apart in the source and are kept apart here.
Assays:
type 1 diabetes = conditions: cited from earlier work
Source text: In addition, the low insulin receptor binding affinity of icodec contributes to its long half-life by reducing the clearance rate, as insulin is mainly cleared by internalisation following binding to and activation of the insulin receptor [9, 10]. In case of excess amounts of icodec throughout the body, e.g ...

[1] = tested on: individuals with type 2 diabetes; type: in vivo, human; conditions: for Mean PGnadir, estimated geometric mean: all participants; for Time to recovery from PGnadir to PG5.5 mmol/l, estimated geometric mean: constant i.v. glucose 5.5 mg kg^−1 min^−1; for Time to recovery from PGnadir to PG5.5 mmol/l, estimated geometric mean / Glucose needed from PGnadir to PG5.5 mmol/l, estimated geometric mean: individuals with PG <3.3 mmol/l at initiation of recovery; for Time to decline from PG5.5 mmol/l to PG3.9 mmol/l, estimated geometric mean: individuals with PG decline to <3.0 mmol/l and/or hypoglycaemia symptoms; for Time to decline from PG5.5 mmol/l to PG3.0 mmol/l, estimated geometric mean: individuals with PG decline to <3.0 mmol/l; for Mean PGnadir in the subgroup analysis: subgroup PGnadir <3.0 mmol/l and/or symptoms
Description: During the two treatment periods, participants received once-weekly icodec for 6 weeks or once-daily glargine U100 for 11 days in randomised order. […] Treatment periods were separated by 35–49 days of washout following icodec and 4–11 days of washout following glargine U100. Icodec (4200 nmol/ml; Novo Nordisk, Bagsværd, Denmark) was administered s.c. in the left thigh at 20:00 hours by qualified site staff using a NovoPen 4 pen injector (Novo Nordisk). […] At the start of week 1, a one-time additional 100% icodec dose was administered to accelerate time to steady state, followed by a normal dose at week 2, a double dose at week 3 (prior to hypoglycaemia induction), no dose at week 4 (due to the double dose given the week before), a normal dose at week 5, and a triple dose at week 6 (prior to hypoglycaemia induction). Insulin glargine U100 (100 U/ml [600 nmol/ml]; Sanofi, Paris, France) was administered s.c. in the right thigh at 09:00 hours by qualified site staff using a SoloStar pen injector (Sanofi). A normal dose of once-daily glargine U100 was established during run in. Glargine U100 was administered at a normal dose for 3 days followed by a double dose on day 4 (prior to hypoglycaemia induction), no dose on day 5 (due to the double dose given the day before), then a normal dose for 5 days, and a triple dose on day 11 (prior to hypoglycaemia induction).
Hypoglycaemia induction was carried out during weeks 3 (double dose) and 6 (triple dose) for icodec and on days 4 (double dose) and 11 (triple dose) for glargine U100 while at steady state. To initiate hypoglycaemia induction, participants should not have experienced hypoglycaemia (PG <3.9 mmol/l) within 24 h or have any relevant medical condition that could confound the outcomes or pose unacceptable risk to the participant. Hypoglycaemia induction (Fig. 1b) was initiated at 16:00 hours 2 days after double/triple icodec dosing (44 h post dose) and on the day of double/triple glargine U100 dosing (7 h post dose). These timings were selected since they approximated the expected time of maximum glucose-lowering effect for both insulin products based on pharmacokinetic/pharmacodynamic modelling performed prior to the trial. For 7.5 h prior to hypoglycaemia induction, PG was kept at 5.5 mmol/l by variable i.v. infusion of glucose (20% wt/vol) or human soluble insulin (100 U/ml in 99.6 ml saline [154 mmol/l NaCl]). PG was measured by a Super GL2 Glucose Analyzer (Dr. Müller Gerätebau, Freital, Germany). Insulin infusion was terminated 60 min prior to hypoglycaemia induction at the latest. PG was maintained at 5.5 mmol/l±20% from 60 min to 30 min prior to hypoglycaemia induction and at 5.5 mmol/l±10% during the last 30 min prior to hypoglycaemia induction. Hypoglycaemia induction was initiated by terminating glucose infusion, thereby allowing PG to decline towards the minimum (nadir) PG target level of no less than 2.5 mmol/l. The handling of alternative scenarios, e.g. PGnadir >2.5 mmol/l, slow PG decline towards hypoglycaemia or slow recovery from hypoglycaemia, is described in electronic supplementary material (ESM) Methods. The investigator recorded if the PGnadir was <3.0 mmol/l or ≥3.0 mmol/l with hypoglycaemic symptoms. The PGnadir level was maintained for 15 min by variable i.v. glucose as needed. Subsequently, euglycaemia was restored by constant i.v. glucose (5.5 mg kg^−1 min^−1) until PG was 5.5 mmol/l, which was maintained until the next morning (between 07:00 hours and 09:00 hours) by variable i.v. glucose. During hypoglycaemia induction, participants remained fasted (except for water ad libitum) and stayed in a supine or semi-supine position (except when cognitive tests were performed). Participants stayed at the clinical site for at least 12 h following each hypoglycaemia induction experiment. […]

[2] = tested on: individuals with type 2 diabetes; experiment: Hypoglycaemia awareness question 'Do you feel hypo?' during hypoglycaemia induction; type: in vivo, human; conditions: subgroup
Description: Hypoglycaemia awareness was determined by asking the question, ‘Do you feel hypo?’, to the participant.

glucagon = experiment: Counterregulatory hormone response: plasma glucagon (ELISA); type: in vivo, human; conditions: plasma, subgroup
Description: (§1) Plasma concentrations of glucagon were measured by an enzyme-linked immunosorbent assay (Mercodia AB, Uppsala, Sweden). Plasma concentrations of adrenaline (epinephrine) and noradrenaline (norepinephrine) were measured by liquid chromatography-mass spectrometry (Thermo Fisher Scientific, Dreieich, Germany). Serum concentrations of cortisol and growth hormone were measured by electrochemiluminescent immunoassays (Roche Diagnostics, Mannheim, Germany).

adrenaline (epinephrine) = experiment: Counterregulatory hormone response: plasma adrenaline (LC-MS); type: in vivo, human; conditions: plasma, subgroup
Description: as §1

[3] = tested on: noradrenaline (norepinephrine); experiment: Counterregulatory hormone response: plasma noradrenaline (LC-MS); type: in vivo, human; conditions: plasma, subgroup
Description: as §1

cortisol = experiment: Counterregulatory hormone response: serum cortisol (electrochemiluminescent immunoassay); type: in vivo, human; conditions: serum, subgroup; for Cortisol at PGnadir, estimated geometric mean: n=19 icodec
Description: as §1

growth hormone = experiment: Counterregulatory hormone response: serum growth hormone (electrochemiluminescent immunoassay); type: in vivo, human; conditions: serum, subgroup; for Growth hormone at PGnadir, estimated geometric mean: n=19 icodec
Description: as §1

[4] = tested on: individuals with type 2 diabetes; conditions: in vivo
Source text: Safety assessments during the trial included adverse events (AEs), hypoglycaemic episodes (other than those induced), vital signs (other than those assessed during hypoglycaemia induction), electrocardiograms, physical examinations and clinical laboratory assessments (haematology, biochemistry and urinalysis).
AEs and hypoglycaemic episodes (other than those induced) during the treatment periods were summarised. The end of each treatment period was defined as 7 days after the last icodec dose and 2 days after the last glargine U100 dose. […] Hypoglycaemic episodes were classified as level 1 (PG <3.9 mmol/l and ≥3.0 mmol/l), level 2 (PG <3.0 mmol/l) and level 3 (severe cognitive impairment requiring assistance for recovery) [20].

[5] = double dose, n=15 icodec, 13 glargine U100
[6] = double dose, n=20 icodec, 19 glargine U100
[7] = double dose, n=17 icodec, 15 glargine U100
[8] = triple dose, n=18 icodec, 22 glargine U100
[9] = triple dose, n=20 icodec, 29 glargine U100
[10] = triple dose, n=20 icodec, 28 glargine U100

Substance: insulin detemir
- Participants with clinically significant hypoglycaemia (type 1 diabetes; in vivo): 78%

Substance: insulin degludec
- Participants with clinically significant hypoglycaemia (type 1 diabetes; type 1 diabetes, triple doses, ref [8], [24]): almost all participants

Substance: neutral protamine Hagedorn insulin
- Participants with clinically significant hypoglycaemia (type 1 diabetes; in vivo): 78%

Substance: insulin glargine U100
- Time to full recovery from hypoglycaemia ([1]; constant i.v. glucose infusion at 5.5 mg kg^−1 min^−1, double and triple doses): ≤ 30 min
- Mean PGnadir, estimated geometric mean ([1]; double dose, n=43 icodec, 42 glargine U100): 3.3 mmol/L
- Time to recovery from PGnadir to PG5.5 mmol/l, estimated geometric mean [1, 5]: 21.0 min
- Glucose needed from PGnadir to PG5.5 mmol/l, estimated geometric mean [1, 5]: 111 mg/kg
- Time to decline from PG5.5 mmol/l to PG3.9 mmol/l, estimated geometric mean [1, 6]: 1.1 h
- Time to decline from PG5.5 mmol/l to PG3.0 mmol/l, estimated geometric mean [1, 7]: 4.5 h
- Mean PGnadir in the subgroup analysis ([1]; double dose): 2.9 mmol/L
- Mean PGnadir, estimated geometric mean ([1]; triple dose, n=38 icodec, 40 glargine U100): 2.9 mmol/L
- Time to recovery from PGnadir to PG5.5 mmol/l, estimated geometric mean [1, 8]: 23.3 min
- Glucose needed from PGnadir to PG5.5 mmol/l, estimated geometric mean [1, 8]: 115 mg/kg
- Time to decline from PG5.5 mmol/l to PG3.9 mmol/l, estimated geometric mean [1, 9]: 0.7 h
- Time to decline from PG5.5 mmol/l to PG3.0 mmol/l, estimated geometric mean [1, 10]: 2.2 h
- Mean PGnadir in the subgroup analysis ([1]; triple dose): 2.7 mmol/L
- Proportion of individuals answering 'Yes' to 'Do you feel hypo?' ([2]; double dose, at PG3.0 mmol/l, n=9/17 icodec, 2/15 glargine U100): 13.3%
- Proportion of individuals answering 'Yes' to 'Do you feel hypo?' ([2]; double dose, at PGnadir, n=14/20 icodec, 10/19 glargine U100): 52.6%
- Proportion of individuals answering 'Yes' to 'Do you feel hypo?' ([2]; triple dose, at PG3.0 mmol/l, n=5/20 icodec, 8/28 glargine U100): 28.6%
- Proportion of individuals answering 'Yes' to 'Do you feel hypo?' ([2]; triple dose, at PGnadir, n=9/20 icodec, 15/29 glargine U100): 51.7%
- Glucagon at PG3.0 mmol/l, estimated geometric mean (glucagon; [7]): 47.7 ng/L
- Glucagon at PGnadir, estimated geometric mean (glucagon; double dose, n=19 icodec, 19 glargine U100): 53.1 ng/L
- Glucagon at PG3.0 mmol/l, estimated geometric mean (glucagon; [10]): 51.6 ng/L
- Glucagon at PGnadir, estimated geometric mean (glucagon; [9]): 59.1 ng/L
- Adrenaline at PG3.0 mmol/l, estimated geometric mean (adrenaline (epinephrine); [7]): 528.3 pmol/L
- Adrenaline at PGnadir, estimated geometric mean (adrenaline (epinephrine); [6]): 590.9 pmol/L
- Adrenaline at PG3.0 mmol/l, estimated geometric mean (adrenaline (epinephrine); [10]): 312.2 pmol/L
- Adrenaline at PGnadir, estimated geometric mean (adrenaline (epinephrine); [9]): 570.9 pmol/L
- Noradrenaline at PG3.0 mmol/l, estimated geometric mean [3, 7]: 853.0 pmol/L
- Noradrenaline at PGnadir, estimated geometric mean [3, 6]: 907.4 pmol/L
- Noradrenaline at PG3.0 mmol/l, estimated geometric mean [3, 10]: 843.0 pmol/L
- Noradrenaline at PGnadir, estimated geometric mean [3, 9]: 890.5 pmol/L
- Cortisol at PG3.0 mmol/l, estimated geometric mean (cortisol; [7]): 153.8 nmol/L
- Cortisol at PGnadir, estimated geometric mean (cortisol; double dose, 19 glargine U100): 300.3 nmol/L
- Cortisol at PGnadir, estimated geometric mean (cortisol; triple dose, 29 glargine U100): 197.6 nmol/L
- Cortisol at PG3.0 mmol/l, estimated geometric mean (cortisol; [10]): 122.9 nmol/L
- Growth hormone at PG3.0 mmol/l, estimated geometric mean (growth hormone; [7]): 4.1 µg/L
- Growth hormone at PGnadir, estimated geometric mean (growth hormone; double dose, 19 glargine U100): 3.5 µg/L
- Growth hormone at PGnadir, estimated geometric mean (growth hormone; triple dose, 29 glargine U100): 3.5 µg/L
- Growth hormone at PG3.0 mmol/l, estimated geometric mean (growth hormone; [10]): 2.4 µg/L
- AE rate [4]: 21.3 AEs per participant-year of exposure
- Duration of level 2 hypoglycaemic episodes, mean±SD [4]: 37.7 ± 15.0 min
- Number of AEs reported [4]: 33 AEs
- Rate of clinically significant hypoglycaemic episodes (level 2, PG <3.0 mmol/l) [4]: 3.0 episodes per participant-year of exposure
- Severe hypoglycaemic episodes (level 3) [4]: no severe hypoglycaemic episodes
- Participants with clinically significant hypoglycaemia (type 1 diabetes; in vivo): almost all participants

Source: paper PMC10317887, “Hypoglycaemia frequency and physiological response after double or triple doses of once-weekly insulin icodec vs once-daily insulin glargine U100 in type 2 diabetes: a randomised crossover trial” (Diabetologia, 2023)
